Experimental data taken from patent publication US10806744B2, “Edible composition” (Conopco, Inc., priority 2015, dated 2020).
Where “and” joins values, the source holds several entries; their conditions need not be identical. Equal entries are not always repeated.

Tests used:
SGLT1 [1] = molecular target: T1, SGLT1 (Homo sapiens, UniProt P13866); conditions: as disclosed in Table 1 of WO 2014/086632; cited from earlier work
T1 sequence (P13866 1-664): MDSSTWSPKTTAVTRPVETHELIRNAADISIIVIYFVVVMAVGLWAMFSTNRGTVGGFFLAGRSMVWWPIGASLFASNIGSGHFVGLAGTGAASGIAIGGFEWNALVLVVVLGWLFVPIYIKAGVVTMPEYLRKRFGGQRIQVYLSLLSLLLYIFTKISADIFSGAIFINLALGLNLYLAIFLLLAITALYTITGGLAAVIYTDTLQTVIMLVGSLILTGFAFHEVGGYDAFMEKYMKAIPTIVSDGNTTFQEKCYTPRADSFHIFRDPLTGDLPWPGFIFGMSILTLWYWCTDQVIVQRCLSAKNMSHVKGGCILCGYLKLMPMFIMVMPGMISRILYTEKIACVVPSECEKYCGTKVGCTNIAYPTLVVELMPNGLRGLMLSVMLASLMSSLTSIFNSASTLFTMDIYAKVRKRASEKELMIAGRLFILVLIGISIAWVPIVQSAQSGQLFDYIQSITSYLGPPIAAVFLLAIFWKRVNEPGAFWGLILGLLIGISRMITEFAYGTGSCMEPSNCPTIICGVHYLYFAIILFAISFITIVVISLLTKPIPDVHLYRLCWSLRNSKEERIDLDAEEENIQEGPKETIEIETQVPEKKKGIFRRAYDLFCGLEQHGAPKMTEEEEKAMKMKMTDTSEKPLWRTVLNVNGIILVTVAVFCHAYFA

GLUT2 = molecular target: T2, GLUT2 (Homo sapiens, UniProt P11168); assay: Glucose transport inhibitor cell screening assay, 25 mM D-glucose for 30 minutes; conditions: for inhibition at 300 µM: Caco-2, read-out: % Glucose transport inhibiton 25 mM
T2 sequence (P11168 1-524): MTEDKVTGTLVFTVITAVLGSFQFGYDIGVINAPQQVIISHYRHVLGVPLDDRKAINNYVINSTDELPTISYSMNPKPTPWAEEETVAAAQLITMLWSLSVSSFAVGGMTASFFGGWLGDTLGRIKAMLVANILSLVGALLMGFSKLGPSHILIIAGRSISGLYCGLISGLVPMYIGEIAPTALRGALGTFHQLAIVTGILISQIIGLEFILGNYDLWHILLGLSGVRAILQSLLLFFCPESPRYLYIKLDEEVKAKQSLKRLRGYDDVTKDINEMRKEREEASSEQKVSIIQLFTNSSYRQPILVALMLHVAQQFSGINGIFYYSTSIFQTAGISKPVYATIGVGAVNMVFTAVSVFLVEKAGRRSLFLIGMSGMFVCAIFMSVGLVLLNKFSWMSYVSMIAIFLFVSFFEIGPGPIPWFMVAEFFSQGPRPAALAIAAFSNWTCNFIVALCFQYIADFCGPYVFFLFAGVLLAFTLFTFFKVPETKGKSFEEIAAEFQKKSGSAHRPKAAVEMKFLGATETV
Protocol: (§1) Human epithelial colorectal adenocarcinoma (Caco-2) cells were obtained from the American Type Culture Collection (ATCC) and cultured in Growth Medium consisting of Dulbecco's modified Eagle's medium (containing Glutamax-1, 4.5 g/L D-glucose and 25 mM 4-(2-hydroxyethyl)-1-piperazine ethanesulphonic acid (Hepes) (Invitrogen)), 10% foetal bovine serum (Sigma), 1% non-essential amino acids (Invitrogen) and 1 mM sodium pyruvate (Sigma)). The cells were routinely passaged at approximately 80% confluence using TrypLE™ Express Stable Trypsin-Like Enzyme (Invitrogen) to detach the cells, and seeded at approximately 114 cells per mm^2 in fresh tissue culture flasks. Only cells between the passage numbers 45 and 49 were used for experiments.
(§2) Corning® HTS Transwell® 96 well permeable insert supports (Sigma) were collagen coated with 40 μl of 50 μg/ml rat tail collagen type I (BD Biosciences) in 0.02 M acetic acid for one hour at room temperature under sterile conditions. The inserts were washed twice in phosphate buffered saline (PBS (Invitrogen)) and the Caco-2 cells seeded into the inserts at 1.0×10^6 cell/ml (75 μl per insert) in Growth Medium and 30 ml of Growth Medium added to the feeder plate below. The cells were left to attach to the collagen matrix and form monolayers over 48 hours at 37° C., 5% CO2. Both inserts and feeder plate were washed in PBS and the cells incubated with BD Entero-STIM™ Enterocyte Differentiation Medium containing MITO+™ Serum Extender solution (both BD Biosciences), 75 μl per insert and 30 ml in the feeder plate, for a further 48 hours at 37° C., 5% CO2.
(§3) Differentiated cell monolayers were washed gently in Dulbecco's Phosphate Buffered Saline containing CaCl2 and MgCl2 (PBS(+) (Invitrogen)) and the inserts transferred to a new Corning® HTS Transwell®-96 well receiver plate (Sigma). The cells were incubated with fresh PBS(+) (75 μl per insert and 225 μl per well) for 60 minutes at 37° C., 5% CO2. The PBS(+) was gently aspirated and replaced with 75 μl per insert of either 5 mM D-glucose (Sigma)±test compound or 25 mM D-glucose±test compound in triplicate and 225 μl per well of PBS(+) quickly added to each well. The 5 mM glucose wells and the 25 mM glucose wells were incubated at 37° C., 5% CO2 for 15 minutes and 30 minutes, respectively. […] The cell inserts were transferred to a new receiver plate, the supernatant gently aspirated from the cells and replaced with 100 μl of 100 μM of Lucifer Yellow (Sigma) solution to confirm the integrity of the monolayers. 225 μl of PBS(+) was added to each well and incubated at 37° C., 5% CO2 for 1 hour. The cell inserts were then discarded and the permeability of the membranes to Lucifer Yellow checked by measuring the fluorescence of the samples at 485 nm (excitation) and 530 nm (emission) on a Spectramax Gemini EM fluorescence microplate reader.
(§4) The amount of glucose transported across the cell monolayers was measured using a glucose assay based on Invitrogen's Amplex Red Glucose/Glucose oxidase Assay Kit. Briefly, 50 μl of each test sample was transferred to a black sided/clear bottom 96-well plate (Greiner Bio-One) to which 100 μl of reaction buffer (0.5 μl 10 mM Ampliflu Red, 1 μl 10 U/ml Horse Radish peroxidase, 1 μl 100 U/ml glucose oxidase and 97.5 μl PBS (all Sigma)) was added. After 10 minutes incubation at room temperature, the fluorescence of the samples was measured at 530 nm (excitation) and 590 nm (emission) on a Spectramax Gemini EM fluorescence microplate reader and the glucose concentration extrapolated from a standard curve.
(§5) At higher D-glucose concentrations, the SGLT1 transporter becomes saturated and consequently the majority of glucose transport across the monolayer is driven by the low affinity, high capacity GLUT2 transporter that is targeted to the apical membrane only following an initial SGLT1-dependent transport of glucose.

[2] = system: glucose transport across differentiated Caco-2 cell monolayers; assay: Glucose transport cell model: 5 mM D-glucose 15 minutes, then 25 mM for 45 minutes, cumulative glucose transport; format: cell-based, human; parameters: unit not given here; conditions: duplicate
Protocol: Caco-2 cells were cultured and routinely passaged as described in Example 1.
After the last incubation, all of the retained PBS(+) from each step (i.e. at 15, 30, 45 and 60 minutes) was assayed for glucose levels as described in Example 1, and the total cumulative glucose transport calculated. The localised changes in luminal glucose concentrations described and illustrated in example 1 are mimicked in-vitro through an initial short incubation of differentiated Caco-2 cells with a low level of D-glucose (5 mM for 15 minutes) immediately followed by a sustained incubation with a high level of D-glucose (final concentration of 25 mM for 45 minutes).
In the above table, every test pairing of a homisoflavonoid (HIF) and a flavonoid monoglucoside (FM) has 5 values reported: • 1. No Compound (NC)+NC • 2.
Synergy is achieved when the inhibition caused by the combination of HIF and FM is greater than the sum of the inhibition due to HIF alone added to the inhibition due to FM alone.

SGLT1 and GLUT2 = assay: Assigned class of transporter inhibited, from Caco-2 screening at 5 mM and 25 mM D-glucose; format: cell-based, human; conditions: from % inhibition at 5 mM and 25 mM D-glucose; compound 300 μM
SGLT1 [3] = molecular target: T1, SGLT1; assay: Glucose transport inhibitor cell screening assay, 5 mM D-glucose for 15 minutes; conditions: for inhibition at 300 µM: Caco-2, read-out: % Glucose transport inhibiton 5 mM; for identified as inhibitors of SGLT1: Caco-2 cell assay
Protocol: as §1, §2, §3, §4, §5

[4] = flavonoid monoglucoside 300 uM alone, added at 5 mM glucose step only (NC at 25 mM)
[5] = flavonoid monoglucoside 300 uM alone, added at 25 mM glucose step only (NC at 5 mM)

For `OC[C@H]1O[C@@H](Oc2cc3c(O)cc(O)cc3[o+]c2-c2ccc(O)c(O)c2)[C@H](O)[C@@H](O)[C@@H]1O` [cyanidin-3-glucoside], the SGLT1 inhibitory activity (SGLT1 [1]) is listed as “SGLT1 inhibitors”.
For `O=c1cc(-c2ccc(O)cc2)oc2cc(OC3O[C@H](CO)[C@@H](O)[C@H](O)[C@H]3O)cc(O)c12` (stereo partly drawn) [apigenin-7-glucoside], the SGLT1 inhibitory activity (SGLT1 [1]) is listed as “SGLT1 inhibitors”.
For `O=c1c(O)c(-c2ccc(O)cc2)oc2cc(O[C@@H]3O[C@H](CO)[C@@H](O)[C@H](O)[C@H]3O)cc(O)c12` [kaempferol-7-glucoside], the SGLT1 inhibitory activity (SGLT1 [1]) is listed as “SGLT1 inhibitors”.
In the case of `Cc1c(O)c(C)c2c(c1O)C(=O)C(Cc1ccc(O)cc1)CO2` (stereo not drawn) [EA3, 5,7-dihydroxy-3-(4′-hydroxybenzyl)-6,8-dimethylchroman-4-one], the inhibition at 300 µM (GLUT2) is reported as 67.4 ± 5.87%, the “identified as inhibitors of GLUT2” value (GLUT2; Caco-2 cell assay) is reported as “inhibitors of GLUT2” and the “Cumulative (AVE) glucose transport” value ([2]; homoisoflavonoid 2.5 uM alone, added at 25 mM glucose step (NC at 5 mM)) is reported as 291.33. The “Class (assigned class of transporter inhibited)” value (SGLT1 and GLUT2) was “GLUT2 (GLUT2 inhibitors having ≥20% inhibition at both 5 mM and 25 mM D-glucose levels)” and the inhibition at 300 µM (SGLT1 [3]) was 91.15 ± 0.46%.
With `OC[C@H]1O[C@@H](Oc2cc3c(O)cc(O)cc3[o+]c2-c2cc(O)c(O)c(O)c2)[C@H](O)[C@@H](O)[C@@H]1O.[Cl-]` [Delphinidin-3-O-glucoside chloride, delphinidin-3-O-glucoside chloride] the “% Glucose transport inhibiton 25 mM” value (GLUT2; compound 300 μM in DMSO, 25 mM D-glucose, 30 minutes, Caco-2 monolayer, triplicate) was 12.82 ± 1.19%, the “Cumulative (AVE) glucose transport” value [2, 4] was 220.62 and the “Cumulative (AVE) glucose transport” value [2, 5] was 227.60. The “Class (assigned class of transporter inhibited)” value (SGLT1 and GLUT2) was “SGLT1”, the “identified as inhibitors of SGLT1” value (SGLT1 [3]) was “inhibitors of SGLT1” and the “% Glucose transport inhibiton 5 mM” value (SGLT1 [3]; compound 300 μM in DMSO, 5 mM D-glucose, 15 minutes, Caco-2 monolayer, triplicate) was 41.00 ± 3.60%.
For `C[C@@H]1O[C@@H](OC[C@H]2O[C@@H](Oc3cc4c(O)cc(O)cc4[o+]c3-c3ccc(O)c(O)c3)[C@H](O)[C@@H](O)[C@@H]2O)[C@H](O)[C@H](O)[C@H]1O` [cyanidin-3-rutinoside], the SGLT1 inhibitory activity (SGLT1 [1]) is listed as “absence of SGLT1 inhibitory activity”.
In the case of `COc1c(O[C@@H]2O[C@H](CO)[C@@H](O)[C@H](O)[C@H]2O)cc2occ(-c3ccc(O)cc3)c(=O)c2c1O` [Tectoridin], the inhibition at 300 µM (GLUT2) is reported as 4.92 ± 2.08%, the “Cumulative (AVE) glucose transport” value ([2]; flavonoid monoglucoside 300 uM alone, added at 5 mM glucose step only (NC at 25 mM), listed as T) is reported as 346.92 and 321.4 and 298.40 and the “Cumulative (AVE) glucose transport” value ([2]; flavonoid monoglucoside 300 uM alone, added at 25 mM glucose step only (NC at 5 mM), listed as T) is reported as 395.85 and 304.5 and 298.98. For the same compound, the “Class (assigned class of transporter inhibited)” value (SGLT1 and GLUT2) was “SGLT1”, the inhibition at 300 µM (SGLT1 [3]) was 29.4 ± 0.62% and the “identified as inhibitors of SGLT1” value (SGLT1 [3]) was “inhibitors of SGLT1”.
For `O=c1cc(-c2ccc(O)c(O)c2)oc2cc(O[C@@H]3O[C@H](CO)[C@@H](O)[C@H](O)[C@H]3O)cc(O)c12` [Luteolin-7-glucoside], the “Cumulative (AVE) glucose transport” value ([2]; flavonoid monoglucoside 300 uM alone, added at 5 mM glucose step only (NC at 25 mM), listed as L7G) is given as 220.63 and 301.4, the “Cumulative (AVE) glucose transport” value ([2]; flavonoid monoglucoside 300 uM alone, added at 25 mM glucose step only (NC at 5 mM), listed as L7G) is given as 256.73 and 281.9 and the SGLT1 inhibitory activity (SGLT1 [1]) is given as “SGLT1 inhibitors”.
In the case of `OC[C@H]1O[C@@H](Oc2cc3c(O)cc(O)cc3[o+]c2-c2ccc(O)cc2)[C@H](O)[C@@H](O)[C@@H]1O` [pelargonidin-3-glucoside], the SGLT1 inhibitory activity (SGLT1 [1]) is listed as “SGLT1 inhibitors”.
For `O=C1CC(c2ccc(O)c(O)c2)Oc2cc(O[C@@H]3O[C@H](CO)[C@@H](O)[C@H](O)[C@H]3O)cc(O)c21` (stereo partly drawn) [eriodictiol-7-glucoside], the SGLT1 inhibitory activity (SGLT1 [1]) is given as “SGLT1 inhibitors”.
In the case of `O=c1c(O[C@@H]2O[C@H](CO)[C@@H](O)[C@H](O)[C@H]2O)c(-c2ccc(O)c(O)c2)oc2cc(O)cc(O)c12` [quercetin-3-glucoside], the SGLT1 inhibitory activity (SGLT1 [1]) is given as “SGLT1 inhibitors”.
For `COc1cc(-c2[o+]c3cc(O)cc(O)c3cc2O[C@@H]2O[C@H](CO)[C@H](O)[C@H](O)[C@H]2O)cc(OC)c1O` [malvidin-3-O-galactoside], the SGLT1 inhibitory activity (SGLT1 [1]) is given as “absence of SGLT1 inhibitory activity”.
For `O=c1c(O[C@@H]2O[C@H](CO)[C@@H](O)[C@H](O)[C@H]2O)c(-c2ccc(O)cc2)oc2cc(O)cc(O)c12` [Kaempferol-3-glucoside], the “Cumulative (AVE) glucose transport” value ([2]; flavonoid monoglucoside 150 uM alone, added at 5 mM glucose step only (NC at 25 mM)) is given as 297.72, the “Cumulative (AVE) glucose transport” value ([2]; flavonoid monoglucoside 150 uM alone, added at 25 mM glucose step only (NC at 5 mM)) is given as 290.49 and the SGLT1 inhibitory activity (SGLT1 [1]) is given as “SGLT1 inhibitors”.
In the case of `O=c1c(O)c(-c2ccc(O[C@@H]3O[C@H](CO)[C@@H](O)[C@H](O)[C@H]3O)c(O)c2)oc2cc(O)cc(O)c12` [quercetin-4-glucoside], the SGLT1 inhibitory activity (SGLT1 [1]) is listed as “SGLT1 inhibitors”.
In the case of `O=c1c(-c2ccc(O)cc2)coc2cc(O[C@@H]3O[C@H](CO)[C@@H](O)[C@H](O)[C@H]3O)ccc12` [daidzein-7-glucoside], the SGLT1 inhibitory activity (SGLT1 [1]) is listed as “SGLT1 inhibitors”.
For `OC[C@H]1O[C@@H](Oc2ccc(O)cc2)[C@H](O)[C@@H](O)[C@@H]1O` [arbutin], the SGLT1 inhibitory activity (SGLT1 [1]) is given as “lack of SGLT1 inhibitory activity”.
With `O=C(CCc1ccc(O)cc1)c1c(O)cc(O)cc1O[C@@H]1O[C@H](CO)[C@@H](O)[C@H](O)[C@H]1O` [Phloridzin, reference compound] the inhibition at 300 µM (GLUT2) was 14.3 ± 0.84%.
For `OC[C@H]1O[C@@H](Oc2cc3c(O)cc(O)cc3[o+]c2-c2cc(O)c(O)c(O)c2)[C@H](O)[C@@H](O)[C@@H]1O` [delphinidin-3-glucoside], the SGLT1 inhibitory activity (SGLT1 [1]) is listed as “SGLT1 inhibitors”.
For `O=c1cc(-c2ccc(O)cc2)oc2c([C@@H]3O[C@H](CO)[C@@H](O)[C@H](O)[C@H]3O)c(O)cc(O)c12` [Apigenin-8-C-glucoside], the “Cumulative (AVE) glucose transport” value [2, 4] is given as 291.89, the “Cumulative (AVE) glucose transport” value [2, 5] is given as 287.58 and the SGLT1 inhibitory activity (SGLT1 [1]) is given as “SGLT1 inhibitors”.
In the case of `O=c1c(O[C@@H]2O[C@H](CO)[C@@H](O)[C@H](O)[C@H]2O)c(-c2ccc(O[C@@H]3O[C@H](CO)[C@@H](O)[C@H](O)[C@H]3O)c(O)c2)oc2cc(O)cc(O)c12` [quercetin-3,4′-diglucoside], the SGLT1 inhibitory activity (SGLT1 [1]) is listed as “destroys this inhibitory action”.
For `O=c1c(-c2ccc(O)cc2)coc2c([C@@H]3O[C@H](CO)[C@@H](O)[C@H](O)[C@H]3O)c(O)ccc12` [daidzein-8-C-glucoside], the SGLT1 inhibitory activity (SGLT1 [1]) is listed as “SGLT1 inhibitors”.
In the case of `O=C1CC(c2ccc(O)cc2)Oc2cc(O[C@@H]3O[C@H](CO)[C@@H](O)[C@H](O)[C@H]3O)cc(O)c21` (stereo partly drawn) [Naringenin-7-O-glucoside], the “Cumulative (AVE) glucose transport” value [2, 4] is given as 215.32, the “Cumulative (AVE) glucose transport” value [2, 5] is given as 236.65 and the SGLT1 inhibitory activity (SGLT1 [1]) is given as “SGLT1 inhibitors”.
For `COc1cc(-c2[o+]c3cc(O)cc(O)c3cc2O[C@@H]2O[C@H](CO)[C@@H](O)[C@H](O)[C@H]2O)cc(OC)c1O` [malvidin-3-O-glucoside], the SGLT1 inhibitory activity (SGLT1 [1]) is listed as “SGLT1 inhibitors”.
